Data published in the OPERA property sets (Mansouri et al. 2018).

| Structure (SMILES) | logP |
| --- | --- |
| CCCc1ccc(CO)cc1 | 2.67 |
| O=S1CC2=NOS3=C2C(=NO3)C1 | -0.3 |
| CC(=O)Nc1n[n+]([O-])c2ccccc2[n+]1[O-] | -0.6 |
| Nc1n[n+]([O-])c2ccc(Cl)cc2[n+]1[O-] | 0.41 |
| C#CCCOC(=O)Nc1ccc(OCC)c(OCC)c1 | 2.54 |
| CC(=O)c1ccc(OC(=O)N(C)C)cc1 | 1.27 |
| CCOC(=O)Cc1ccc(-n2sc3ccccc3c2=O)cc1 | 3.33 |
| COc1ccc(-c2nnc(NC(=O)c3c(OC)cccc3OC)s2)cc1 | 3.56 |
| CCOc1ccc(-c2nnc(NC(=O)c3c(OC)cccc3OC)s2)cc1 | 3.75 |
| CCCC(=O)Oc1ccccc1C(=O)O | 2.2 |
| COc1n[n+]([O-])c2ccccc2[n+]1[O-] | -0.3 |
| CC(C)=CCN1CC[C@@]2(C)c3cc(O)ccc3C[C@@H]1[C@@H]2C | 4.64 |
| CNC(=O)N(CCCC(NC(C)=O)C(=O)NCc1ccccc1)Cc1ccccc1 (stereo unspecified) | 1.86 |
| CCCCCOc1ccccc1NC(=O)OC1CCCCC1CN(C)C (stereo unspecified) | 5.46 |
| O=C1NC(=O)C(c2ccccc2)(c2ccccc2)N1S(=O)(=O)c1ccccc1 | 4.04 |
| CCOc1ccc(NC(=O)OCCCl)cc1OCC | 2.62 |
| CN(C)C(=O)Oc1cccc(F)c1 | 1.75 |
| CN(C)C(=O)Oc1cccc([N+](=O)[O-])c1 | 1.56 |
| COc1ccc2cc(CC(=O)O)ccc2c1 | 2.82 |
| CC1CC2=NOS3=C2C(=NO3)C1 | 1.5 |
| C#CCOc1cc(NC=NOCC=C)cc(Cl)c1OCC#C | 2.7 |
| COc1ccc2cc(CC(=O)OCC(=O)NC(C)C)ccc2c1 | 2.89 |
| COc1ccc2cc(CC(=O)OCC(=O)N3CCOCC3)ccc2c1 | 2.13 |

| Structure (SMILES) | logP |
| --- | --- |
| CCCN(CCC)C(=O)COC(=O)Cc1ccc2cc(OC)ccc2c1 | 4.04 |
| CCOC(=O)C(C)c1ccc(-n2sc3ccccc3c2=O)cc1 (stereo unspecified) | 3.91 |
| CC(C)(C)c1ccc(CC2CCCC2(O)Cn2cncn2)cc1 (stereo unspecified) | 3.97 |
| Nc1ncn(C2CC(O)C(CO)O2)c(=O)n1 (stereo unspecified) | -1.89 |
| Cc1ccc2c(c1)[n+]([O-])nc(N)[n+]2[O-] | 0.2 |
| CC(C)c1ccc(OC(=O)N(C)C)cc1 | 3.04 |
| C=CCN(N=O)C(=O)N(CCCCC(NC(C)=O)C(=O)Nc1ccccc1)Cc1ccccc1 (stereo unspecified) | 2.7 |
| COc1ccc2cc(CC(=O)OCC(=O)N3CCCC3)ccc2c1 | 2.71 |
| CCCCCCCCn1c(N)c(N)c(=O)[nH]c1=O | 2.05 |
| O=c1[nH]c2ccccc2n1C1CCNCC1 | 1.14 |
| CC(C)(C)C(=O)OCn1cc(F)c(=O)[nH]c1=O | 0.66 |
| [O-][n+]1ccc(Cl)cc1 | -0.44 |
| C=CCN(N=O)C(=O)NCCCC(NC(C)=O)C(=O)NCc1ccccc1 (stereo unspecified) | 1.3 |
| COC(=O)C(C)c1ccc(-n2sc3ccccc3c2=O)cc1 (stereo unspecified) | 3.46 |
| COCCNC(=O)Cn1ccnc1[N+](=O)[O-] | -0.77 |
| C=CCN(N=O)C(=O)N(CCC)CCCC(NC(C)=O)C(=O)NCc1ccccc1 (stereo unspecified) | 2.16 |
| C#CCOc1cc(NC=NOCC)cc(F)c1OCC#C | 2.1 |
| CNC(=O)COC(=O)Cc1ccc2cc(OC)ccc2c1 | 2.19 |
| CCCCNC(=O)COC(=O)Cc1ccc2cc(OC)ccc2c1 | 3.57 |
| CCOc1ccccc1NC(=O)OC1CCCCC1CN(C)C (stereo unspecified) | 4.14 |
| COC1N(C2CC(N=[N+]=[N-])C(CO)O2)C(=O)NC(=O)C1(C)I (stereo unspecified) | 1.03 |
| O=C1NC(=O)C(c2ccccc2)(c2ccccc2)N1S(=O)(=O)c1ccc(Cl)cc1 | 4.48 |
| C#CCC(C)OC(=O)Nc1ccc(OCC)c(OCC)c1 (stereo unspecified) | 2.86 |

| Structure (SMILES) | logP |
| --- | --- |
| C1SCC2=NOS3=C2C1=NO3 | 1.2 |
| CCSc1nnc(C(C)(C)C)c(=O)n1N | 2.08 |
| Nc1n[n+]([O-])c2cc(OCC(O)CO)ccc2[n+]1[O-] (stereo unspecified) | -1.1 |
| CCCN(CCCC(NC(C)=O)C(=O)NCc1ccccc1)C(=O)NC (stereo unspecified) | 1.47 |
| CCc1ccc(CO)cc1 | 2.27 |
| CC1CCC2C(C)COC3OC4(C)CCC1C32OO4 (stereo unspecified) | 3.16 |
| COc1ccc2c(c1)[n+]([O-])nc(N)[n+]2[O-] | 0 |
| CCC(C(=O)OC)c1ccc(-n2sc3ccccc3c2=O)cc1 (stereo unspecified) | 3.91 |
| CN(C)C(=O)Oc1cccc(C#N)c1 | 1.23 |
| COC(=O)NC(=S)Nc1ccccc1N | 0.7 |
| CCCCCCCOc1ccccc1NC(=O)OC1CCCCC1CN(C)C (stereo unspecified) | 6.3 |
| C=CCN(CC=C)C(=O)COC(=O)Cc1ccc2cc(OC)ccc2c1 | 3.67 |
| ClC1=C(Cl)C2C(C1Cl)C1(Cl)C(Cl)C(Cl)C2(Cl)C1(Cl)Cl (stereo unspecified) | 6.08 |
| COc1ccccc1NC(=O)OC1CCCCC1CN(C)C (stereo unspecified) | 3.55 |
| COc1cccc(OC)c1C(=O)Nc1nnc(-c2ccc(C)cc2)s1 | 3.85 |
| C=CCNC(=O)NCCCCC(NC(C)=O)C(=O)NCc1ccccc1 (stereo unspecified) | 0.76 |
| CCC1CCC(Cc2ccc(Cl)cc2)C1(O)Cn1cncn1 (stereo unspecified) | 3.71 |
| CCCCCCCCCCn1c(N)c(N)c(=O)[nH]c1=O | 3.04 |
| CC=CCOCN(C(=O)CCl)c1c(CC)cccc1CC | 3.51 |
| C=CCNC(=O)N(CCC)CCCCC(NC(C)=O)C(=O)NCc1ccccc1 (stereo unspecified) | 1.75 |
| COP(=O)(CC(C)=O)OC | -0.86 |
| C#CC(CC)OC(=O)Nc1ccc(OCC)c(OCC)c1 (stereo unspecified) | 3.07 |
| CCCN(CCCC(NC(C)=O)C(=O)NCc1ccccc1)C(=O)N(C)N=O (stereo unspecified) | 1.61 |

| Structure (SMILES) | logP |
| --- | --- |
| CCOC(=O)COc1ccc(-n2sc3ccccc3c2=O)cc1 | 2.96 |
| CCCNC(=O)COC(=O)Cc1ccc2cc(OC)ccc2c1 | 3.1 |
| CN(C)C(=O)Oc1ccc(Br)cc1 | 2.46 |
| CC12CCC(CC1=O)C2(C)C (stereo unspecified) | 2.38 |
| COc1ccc2cc(CC(=O)OCC(=O)N(C(C)C)C(C)C)ccc2c1 | 3.89 |
| O=C1NC(Cc2c[nH]c3ccccc23)C(=O)NC1Cc1ccc(O)cc1 (stereo unspecified) | 1.05 |
| C=CCN(N=O)C(=O)NCCCCC(NC(C)=O)C(=O)NCc1ccccc1 (stereo unspecified) | 1.62 |
| CCCCOc1ccccc1NC(=O)OC1CCCCC1CN(C)C (stereo unspecified) | 5.01 |
| CCCOc1ccccc1NC(=O)OC1CCCCC1CN(C)C (stereo unspecified) | 4.44 |
| Clc1ccc(-c2ccc(Cl)c(Cl)c2)cc1 | 5.9 |
| C#CCOc1ccc(NC=NOC)cc1OCC#C | 1.6 |
| CC(=O)CC(=O)Nc1n[n+]([O-])c2ccccc2[n+]1[O-] | -1.4 |
| C#CCNC(=O)NCCCCC(NC(C)=O)C(=O)NCc1ccccc1 (stereo unspecified) | 0.23 |
| CCOc1ccc(NC(=O)OCCF)cc1OCC | 2.27 |
| C#CCOc1cc(NC=NOCC)cc(Cl)c1OCC#C | 2.6 |
| CCOC(=O)CCCOc1ccc(-n2sc3ccccc3c2=O)cc1 | 3.96 |
| COc1ccc2cc(CC(=O)OCC(=O)NC(C)(C)C)ccc2c1 | 3.6 |
| CN(C)C(=O)Oc1ccc(F)cc1 | 1.58 |
| C=CCNC(=O)N(CCC)CCCC(NC(C)=O)C(=O)NCc1ccccc1 (stereo unspecified) | 1.21 |
| COc1ccc2cc(CC(=O)OCC(=O)N(C)CCO)ccc2c1 | 1.58 |
| CCN(CC)C(=O)COC(=O)Cc1ccc2cc(OC)ccc2c1 | 3.05 |
| C=CC(CC)OC(=O)Nc1ccc(OCC)c(OCC)c1 (stereo unspecified) | 3.42 |
| Cc1cccc(O)c1C | 2.48 |

| Structure (SMILES) | logP |
| --- | --- |
| CNC(=O)NCCCC(NC(C)=O)C(=O)NCc1ccccc1 (stereo unspecified) | -0.33 |
| COC1N(C2CC(N=[N+]=[N-])C(CO)O2)C(=O)NC(=O)C1(C)Br (stereo unspecified) | 1.12 |
| OC1(Cn2cncn2)CCCC1Cc1ccccc1 (stereo unspecified) | 2.26 |
| CN(C)C(=O)Oc1cccc(Cl)c1 | 2.33 |
| COc1ccc2cc(CC(=O)OCC(N)=O)ccc2c1 | 1.88 |
| COc1cccc(OC)c1C(=O)Nc1nnc(-c2ccc(F)cc2)s1 | 3.5 |
| [O-][n+]1nc2ccccc2c2ccccc21 | 2.24 |
| COC(=O)Cc1ccc(-n2sc3ccccc3c2=O)cc1 | 2.83 |
| Cc1cc[n+]([O-])cc1 | -0.88 |
| CCOc1ccc(NC(=O)OC(C)CCl)cc1OCC (stereo unspecified) | 2.97 |
| COc1ccc2cc(CC(=O)OCC(=O)N(CCO)CCO)ccc2c1 | 1.41 |
| CCOc1cc[n+]([O-])cc1 | -0.53 |
| CC(=O)c1cc[n+]([O-])cc1 | -0.93 |
| COc1cccc(OC)c1C(=O)Nc1nnc(-c2ccc(Br)cc2)s1 | 3.92 |
| CC(=O)Oc1ccc(C(=O)O)cc1 | 1.48 |
| Cc1ccccc1S(=O)(=O)N1C(=O)NC(=O)C1(c1ccccc1)c1ccccc1 | 4 |
| C#CCOc1cc(NC=NOC)cc(Cl)c1OCC#C | 2.3 |
| CC(=O)NC(CCCNC(=O)NCCCl)C(=O)NCc1ccccc1 (stereo unspecified) | 0.34 |
| O=[N+]([O-])C=C1CCCN1Cc1ccc(Cl)nc1 | 0.68 |
| CC(C(N)=O)c1ccc(-n2sc3ccccc3c2=O)cc1 (stereo unspecified) | 2.07 |
| CCOc1ccc(NC(=O)OC(C)CF)cc1OCC (stereo unspecified) | 2.59 |
| CN(C)C(=O)Oc1ccc(C#N)cc1 | 1.21 |
| CC(=O)NC(CCCCNC(=O)N(C)N=O)C(=O)NCc1ccccc1 (stereo unspecified) | 1.18 |

| Structure (SMILES) | logP |
| --- | --- |
| CCCN(CCCCC(NC(C)=O)C(=O)NCc1ccccc1)C(=O)N(C)N=O (stereo unspecified) | 1.73 |
| Cc1ccc(CC2CCCC2(O)Cn2cncn2)cc1 (stereo unspecified) | 2.71 |
| COc1ccc2cc(CC(=O)OCC(=O)NC3CCCCC3)ccc2c1 | 3.99 |
| C#CCOc1cc(NC=NOCOC)cc(Cl)c1OCC#C | 2.2 |
| CN(C)C(=O)Oc1cccc(N(C)C)c1 | 1.93 |
| C=CCN1CCN(CC=C)C1=S | 1.63 |
| CCC(C)c1ccc(OC(=O)N(C)C)cc1 (stereo unspecified) | 3.62 |
| C#CCOc1cc(NC=NOC)cc(F)c1OCC#C | 1.8 |
| CCOC(=O)C(CC)c1ccc(-n2sc3ccccc3c2=O)cc1 (stereo unspecified) | 4.11 |
| CNC(=O)NCCCCC(NC(C)=O)C(=O)NCc1ccccc1 (stereo unspecified) | 0.06 |
| COc1ccc2c(c1OC)-c1ccc(OC)c(=O)cc1C(NC(C)=O)CC2 (stereo unspecified) | 1.02 |
| CC(=O)NC(CCCCN(Cc1ccccc1)C(=O)N(C)N=O)C(=O)NCc1ccccc1 (stereo unspecified) | 2.12 |
| CCCCc1ccc(CO)cc1 | 3 |
| C#CCOc1cc(NC=NOCOC)cc(F)c1OCC#C | 1.7 |
| CNC(=O)N(CCCCC(NC(C)=O)C(=O)NCc1ccccc1)Cc1ccccc1 (stereo unspecified) | 1.99 |
| C=CCN1CCCN(CC=C)C1=S | 2.08 |
| C=CCNC(=O)NCCCC(NC(C)=O)C(=O)NCc1ccccc1 (stereo unspecified) | 0.68 |
| CCOC(=O)CCOc1ccc(-n2sc3ccccc3c2=O)cc1 | 3.59 |
| COC1N(C2CC(N=[N+]=[N-])C(CO)O2)C(=O)NC(=O)C1(C)Cl (stereo unspecified) | 0.84 |
| Cc1cc2cc3c(C)cc(=O)oc3c(C)c2o1 | 3.14 |
| C#CCON=CNc1cc(F)c(OCC#C)c(OCC#C)c1 | 1.8 |
